These results are taken from PubChem BioAssay (NCI).

What all share (test): NCI anticancer screen, dose series, 48 h
Assay [1] concerns HCT-116 colon.
Assay [2] concerns BT-549 breast.
The test system of assay [3] is CCRF-CEM leukemia.
The test system of assay [4] is KM12 colon.
In assay [5] the test system is OVCAR-5 ovarian.
In assay [6] the test system is TK-10 renal.
Assay [7] concerns HCC-2998 colon.
The test system of assay [8] is OVCAR-3 ovarian.
Assay [9] deals with SW-620 colon.
Assay [10] relates to A498 renal.

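48-hour exposure; five concentrations; linearly interpolated endpoints. At the GI50, growth is halved. TGI denotes the concentration required for complete inhibition of growth.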

Turning to `CC(C)CCN=C(N)c1ccc(N2CCN(c3ccc(C(N)=NCCC(C)C)cc3)CC2)cc1`, the GI50 was 9.52 µM in assay [1]; 0.474 µM in assay [2]; 6.37 µM in [3]; 3.82 µM in assay [4]; 38.5 µM in [5]; 9.08 µM in assay [6]. For the same molecule, the GI50 in [7] was 11.1 µM; in [8] it was 11.3 µM; in assay [9], 15.1 µM. Besides, the TGI in [1] is 33.5 µM; in assay [2], 3.1 µM; in assay [3] it was 26.4 µM; in assay [4] it was 16.6 µM; in assay [5], above 100 µM; in assay [6], 89.9 µM. The TGI in assay [7] is 37.4 µM; in [8], 44.8 µM; in assay [9], 91.2 µM.
Turning to `O=[N+]([O-])c1c(Br)sc(Br)c1[N+](=O)[O-]`, the GI50 was 16.1 µM in assay [2]; 1.11 µM in assay [3]; 10.1 µM in assay [4]; 2.46 µM in assay [5]; 2.31 µM in [6]; 12.3 µM in assay [7]. For the same molecule, the GI50 in [8] was 1.71 µM; in assay [10] it was 13.2 µM; in assay [9], 1.6 µM. Besides, the TGI in assay [2] came out at 29.7 µM; in assay [3], 4.15 µM; in assay [4] it was 22 µM; in assay [5], 6.95 µM; in assay [6] it was 6.18 µM; in [7] it was 26.2 µM. Besides, the TGI in assay [8] was 3.2 µM; in assay [10], 26 µM; in assay [9] it was 3.27 µM.
Turning to `Nc1nc(-c2ccc(F)cc2)c(-c2ccc3ncccc3n2)s1`, the GI50 in [1] is above 25 µM; in assay [2], 16.1 µM; in assay [3] it was above 22.1 µM; in [4], above 25 µM; in assay [5], 14.1 µM; in assay [6], 5.62 µM. Besides, the GI50 in assay [7] is above 25 µM; in assay [8] it was 12.7 µM; in assay [10], 3.83 µM; in [9], above 25 µM. Besides, the TGI was above 25 µM in assay [1]; above 25 µM in assay [2]; above 25 µM in [3]; above 25 µM in assay [4]; above 25 µM in assay [5]; 17.1 µM in assay [6]. For the same molecule, the TGI in [7] is above 25 µM; in assay [8], above 25 µM; in [10], 19.4 µM; in [9], above 25 µM.
For `Fc1ccc(Nc2nc3nonc3nc2Nc2ccc(F)cc2)cc1`, the GI50 in assay [1] is 0.322 µM; in [2], 0.309 µM; in assay [3] it was 0.35 µM; in assay [4] it was 0.395 µM; in assay [5], 0.709 µM; in assay [6] it was 0.435 µM. Moreover, the GI50 in assay [7] is 0.414 µM; in assay [8], 0.371 µM; in [10] it was 0.163 µM; in assay [9], 0.573 µM. Also, the TGI amounted to 11.4 µM in assay [1]; 2.77 µM in assay [2]; 10.1 µM in [3]; 10.6 µM in [4]; 13.8 µM in assay [5]; 6.74 µM in [6]. Further, the TGI was 5.49 µM in assay [7], 11 µM in assay [8], 0.66 µM in assay [10] and 14.2 µM in assay [9].
For the molecule `COc1ccc(Cn2cc3c(c2-c2ccc(OC)cc2)CCc2cnoc2-3)cc1`, the GI50 was 0.451 µM in assay [1]; 0.76 µM in [2]; 0.364 µM in assay [3]; 0.376 µM in assay [4]; 2.68 µM in assay [5]; 0.616 µM in [6]. Besides, the GI50 is 0.846 µM in assay [7], 0.259 µM in [8], 0.213 µM in [10] and 0.353 µM in assay [9]. The TGI in assay [1] was above 100 µM; in assay [2], above 100 µM; in assay [3], above 100 µM; in assay [4], 2.35 µM; in [5] it was above 100 µM; in assay [6], above 100 µM. For the same molecule, the TGI in assay [7] is 5.92 µM; in assay [8] it was 0.62 µM; in assay [10], 0.749 µM; in [9] it was above 100 µM.
Turning to `CCCCS(=O)(=O)CCC(N)C(=O)O` (stereo not drawn), the TGI in assay [1], in [2], in assay [3], in [4], in assay [5] and in assay [6] was above 100 µM each time. Further, the TGI in assay [7], in assay [8], in assay [10] and in [9] was above 100 µM each time.
`CCC1CCc2nc3sc(C(=O)Nc4cccc(F)c4)c(N)c3cc2C1` (stereo not drawn): the GI50 in assay [1] is 2.25 µM; in assay [2], above 100 µM; in [3], 1.79 µM; in assay [5], above 100 µM; in assay [6] it was above 100 µM; in assay [7], above 100 µM. Further, the GI50 is 0.757 µM in assay [8], 0.602 µM in assay [10] and 0.707 µM in assay [9]. Besides, the TGI in assay [1], in [2], in [3], in assay [5], in [6] and in [7] was above 100 µM in each case. Moreover, the TGI in [8], in assay [10] and in assay [9] was above 100 µM throughout.
Consider `COc1cc(/C=C/C(=O)c2ccc(NC(=O)CN3CCN(c4cc5c(cc4F)c(=O)c(C(=O)O)cn5C4CC4)CC3)cc2)cc(OC)c1OC`, for which the GI50 in assay [1] was 0.324 µM; in assay [2], 0.405 µM; in assay [4], 0.451 µM; in [5], 2.96 µM; in assay [6], 1.8 µM; in assay [7] it was 3.16 µM. For the same molecule, the GI50 in assay [8] is 0.364 µM; in [10], 0.825 µM; in assay [9] it was 0.485 µM. Besides, the TGI in [1] was 1.31 µM; in [2] it was 1.44 µM; in assay [4] it was 2.31 µM; in assay [5], above 27.1 µM; in assay [6] it was 12.9 µM; in assay [7], 14.1 µM. For the same molecule, the values for the TGI in assay [8] and in assay [10] were 1.37 µM and 2.83 µM, respectively.
In the case of `Cc1cccc2c(=O)c3c(sc12)c(NCCNCCO)nc1ccccc13`, the GI50 in assay [1] is 1.35 µM; in assay [2], 1.58 µM; in [3], 1.85 µM; in [4], 1.64 µM; in assay [5], 1.61 µM; in [7], 1.55 µM. Besides, the GI50 in [8] is 1.55 µM; in [10], 1.67 µM; in [9], 1.45 µM. The TGI in [1] came to 2.72 µM; in assay [2], 3.35 µM; in [3], 3.73 µM; in [4], 3.19 µM; in assay [5], 3.06 µM; in assay [7] it was 3.11 µM. The TGI in assay [8] was 2.99 µM; in assay [10] it was 3.7 µM; in assay [9] it was 3.01 µM.
Turning to `Cc1c(COc2cc(OCc3cccc(C#N)c3)c(CN3C[C@H](O)C[C@@H]3C(=O)O)cc2Cl)cccc1-c1ccc2c(c1)OCCO2`, the GI50 in assay [1] was 1.96 µM; in assay [2] it was 7.58 µM; in [4] it was 16.1 µM; in [5] it was 17.3 µM; in assay [6], 20.2 µM; in [7] it was 15.6 µM. Also, the GI50 in assay [10] was 18.7 µM; in [9] it was 16.7 µM. For the same molecule, the TGI in assay [1] stood at 4.18 µM; in [2], 21.8 µM; in assay [4], 30.3 µM; in assay [5], 31 µM; in assay [6] it was 41.5 µM; in [7], 29.2 µM. For the same molecule, the TGI in [10] is 33.3 µM; in assay [9], 31.5 µM.
As for `Cc1cc(N(CCNc2ccnc3cc(Cl)ccc23)Cc2ccco2)nc(Cl)n1`, the GI50 is 1.48 µM in [1]; 1.69 µM in [2]; 1.89 µM in assay [4]; 1.68 µM in [5]; 1.81 µM in assay [6]; 1.72 µM in [7]. The GI50 in assay [8] was 1.61 µM; in [10] it was 1.87 µM; in assay [9], 1.75 µM. The TGI in assay [1] is 2.84 µM; in [2], 3.14 µM; in assay [4], 3.95 µM; in assay [5], 3.23 µM; in [6], 3.21 µM; in assay [7], 3.3 µM. Moreover, the TGI was 3.01 µM in assay [8], 4.21 µM in assay [10] and 3.46 µM in assay [9].
As to `CC1OC(OC2C(O[C@H]3CC[C@@]4(C)C(=CC[C@H]5[C@@H]6C[C@@H]7O[C@]8(CC[C@H](C)CN8)[C@@H](C)[C@@H]7[C@@]6(C)CC[C@@H]54)C3)OC(CO)C(O)C2OC2OC(CO)C(O)C(O)C2O)C(O)C(O)C1O` (stereo partly drawn), the TGI stood at 39.9 µM in assay [1]; 30.9 µM in assay [2]; 39.3 µM in assay [3]; 34.9 µM in assay [4]; 28.7 µM in assay [5]; 31.1 µM in assay [6]. Moreover, the TGI was 32.2 µM in assay [7], 42.9 µM in [10] and 39 µM in assay [9].
Regarding `COC(=O)CCCC(=O)O`, the TGI in assay [1], in [2], in assay [4], in [5], in assay [6] and in assay [8] was above 100 µM in each case. For the same molecule, the TGI in [10] and in assay [9] was above 100 µM throughout.
`CN1CCN(c2ccc3nc(-c4ccc5nc(-c6ccc(OCCC(C)(C)C)cc6)[nH]c5c4)[nH]c3c2)CC1`: the GI50 was 17.5 µM in [2]; 2.72 µM in [3]; 1.91 µM in assay [4]; 2.96 µM in assay [5]; 18.2 µM in assay [6]; 5.06 µM in assay [7]. The GI50 is 5.22 µM in assay [8], 17.5 µM in [10] and 2.12 µM in assay [9]. The TGI in assay [2] was determined as 40.1 µM; in assay [3], 7.34 µM; in assay [4] it was 4.2 µM; in assay [5], 9.96 µM; in assay [6], 38.8 µM; in [7], 18.5 µM. The TGI worked out at 16.8 µM in assay [8], 35.1 µM in assay [10] and 3.96 µM in assay [9].
For the molecule `O=C1c2ccccc2C(=O)c2c1ccc(C1C(=O)c3ccccc3C1=O)c2-c1c(C2C(=O)c3ccccc3C2=O)ccc2c1C(=O)c1ccccc1C2=O`, the TGI in assay [1], in assay [2], in [4], in assay [5], in assay [6] and in assay [8] was above 100 µM in each case. Further, the TGI in assay [10] and in assay [9] was above 100 µM in each case.
Turning to `C=C1CCC2C(C)(C)CCC[C@]2(C)[C@H]1CO` (stereo partly drawn), the GI50 was 30.4 µM in assay [1]; 47.9 µM in [2]; 87.7 µM in assay [4]; 93.5 µM in assay [5]; above 100 µM in assay [6]; 13.5 µM in [7]. In addition, the GI50 in assay [8] and in assay [9] was above 100 µM each time. The TGI in assay [1] is above 100 µM; in assay [2] it was above 100 µM; in assay [4], above 100 µM; in assay [5] it was above 100 µM; in [6], above 100 µM; in assay [7], 33 µM. The TGI in assay [8] and in assay [9] was above 100 µM in each case.
On to `C=C1CC/C=C(\C)C(=O)C[C@@H]2[C@@H]1CC2(C)C`, for which the TGI amounted to 7.06 µM in assay [1]; 11.6 µM in [2]; 39.1 µM in [4]; 27.3 µM in [5]; 17.1 µM in [6]; 12.7 µM in assay [7]. The TGI was 20.7 µM in assay [8], above 30 µM in assay [10] and 11.5 µM in assay [9].
Consider `CN(C)c1ccc(Nc2cc(-c3cccc(OC(F)(F)F)c3)nc3ccc(N4CCCC4)cc23)cc1`, for which the GI50 is 1.96 µM in [2]; 1.79 µM in [5]; 1.84 µM in [6]; 1.85 µM in [7]; 1.74 µM in [8]; 2.47 µM in assay [10]. In addition, the TGI stood at 3.58 µM in assay [2]; 3.37 µM in [5]; 3.3 µM in assay [6]; 3.36 µM in assay [7]; 3.14 µM in assay [8]; 10.6 µM in [10].
